Blank lines part the entries; values can stand above or below the molecule they belong to. No end group written: not given here. FLAG = FLAG epitope tag (3XFLAG, N-terminal)
Tests used:
[1] = system: Rpn13 Cys88; conditions: ref [22]; cited from earlier work
From the text: (§1) hRpn13 functions in ovarian and colorectal cancer proliferation, and its knockdown triggers apoptosis in these and other cancer cell lines.

[2] = system: Rpn13 interdomain interactions; conditions: ref [22]; cited from earlier work
From the text: as §1

[3] = system: multiple myeloma and ovarian cancer xenografts; conditions: ref [22]; cited from earlier work
From the text: as §1

[4] = system: ubiquitin-mediated protein degradation; conditions: ref [22]; cited from earlier work
From the text: as §1

[5] = system: endogenous hRpn13; experiment: anti-FLAG immunoprecipitation, immunoprobed for endogenous hRpn13; assay type: cell-based, human; conditions: 293T cells transfected with p3XFLAG-CMV7.1 plasmid; anti-FLAG IP, anti-Rpn13 immunoblot
Protocol: (§2) 293T cells (purchased from ATCC) were cultured in DMEM supplemented with 10% fetal bovine serum at 37°C in a humidified atmosphere and 5% CO2. Plasmid DNA was transfected into 293T cells using Lipofectamine2000 (Invitrogen) according to the manufacturer’s instruction. Cells were harvested by gentle centrifugation at 500g for 5 minutes at 4°C after washing with PBS, and cell pellets were resuspended in 1% Triton-TBS buffer (50 mM Tris, pH7.5, 150 mM NaCl, 1 mM EDTA and protease inhibitor cocktail) followed by rocking at 4°C for 30 minutes. The supernatant was collected following centrifugation at 16,000g for 10 minutes and incubated with antibodies at 4°C overnight. Protein G sepharose beads (Sigma) were used to pull down interacting proteins by 3-hour incubation at 4°C. After extensive washing with 1% Triton TBS buffer, SDS-PAGE loading buffer was used to elute proteins from beads for immunoblotting.
The resulting plasmid was transfected into 293T cells and the cell lysate immunoprecipitated with anti-FLAG antibody.

[6] = system: hRpn13 at the proteasome; experiment: anti-hRpt3 immunoprecipitation of proteasome, immunoprobed for hRpn13 (displacement); assay type: cell-based, human; conditions: 293T cells over-expressing peptide; anti-hRpt3 IP, anti-hRpn13 immunoblot; Fig 6A
Protocol: (§3) The DNA fragment encoding amino acid 916 to 953 of hRpn2 was amplified by PCR and cloned into the bacterial expression vector pRSET and mammalian expression vector p3XFLAG-CMV7.1. Antibodies used in this study include anti-FLAG (Sigma), anti-hRpn2 (cell signaling), anti-hRpt3 (Abcam), and anti-hRpn13 (Abcam).
as §2, with “After extensive washing with 1% Triton TBS buffer, SDS-PAGE loading buffer was used to elute proteins from beads for immunoblotting.” left out
(§4) We next tested whether over-expression of the hRpn2-derived peptide depletes hRpn13 from the proteasome. For this purpose, we immunoprecipitated proteasome by anti-hRpt3 antibody and detected the presence of hRpn13 by immunoprobing with anti-hRpn13 antibody.

[7] = system: ubiquitinated proteins in 293T cells; experiment: accumulation of ubiquitinated proteins, immunoblot of cell lysates; assay type: cell-based, human; conditions: 293T cells transfected with HA-ubiquitin and peptide plasmid; anti-ubiquitin immunoblot, actin loading control; Fig 6B
Protocol: as §2
We next tested whether over-expression of the hRpn2-derived peptide in 293T cells leads to the accumulation of ubiquitinated proteins. Lysates from cells transfected with HA-ubiquitin alone or together with either FLAG-hRpn2 (916–953) WT or F948Stop were subjected to immunoblotting with anti-ubiquitin antibody. Cells expressing F948Stop were used as a negative control, and immunoblotting with anti-actin antibody to confirm equivalent loading.

[8] = system: proteasome subunit hRpn2; experiment: anti-FLAG immunoprecipitation, immunoprobed for endogenous hRpn2; assay type: cell-based, human; conditions: 293T cells; anti-FLAG IP; Fig 5A
Protocol: as §3
as §2, with “immunoblotting. […]” for “immunoblotting.”

[9] = system: proteasome subunit hRpt3; experiment: anti-FLAG immunoprecipitation, immunoprobed for endogenous hRpt3; assay type: cell-based, human; conditions: 293T cells; anti-FLAG IP; Fig 5A
Protocol: as §3
as §2, with “immunoblotting. […]” for “immunoblotting.”

[10] = system: hRpn2 in the proteasome; experiment: anti-hRpt3 immunoprecipitation of proteasome, immunoprobed for hRpn2; assay type: cell-based, human; conditions: 293T cells over-expressing peptide; anti-hRpt3 IP; Fig 6A
Protocol: as §3
as §2, with “After extensive washing with 1% Triton TBS buffer, SDS-PAGE loading buffer was used to elute proteins from beads for immunoblotting.” left out
as §4

[11] = target: T1, hRpn13 (1–150) (human, UniProt Q16186 1-150); experiment: ITC; 200 μM hRpn2 (916-953) injected into 20 μM hRpn13 (1-150) in the cell; 25°C; 20 mM sodium phosphate, 50 mM NaCl, 10 mM βME, pH 6.5; one-site fit; conditions: both partners purified
T1 construct: human Rpn13/Adrm1, Pru (pleckstrin-like receptor for ubiquitin) domain, residues 1-150; also called hRpn13 Pru domain; hRpn13 Pru
T1 sequence (Q16186 1-150): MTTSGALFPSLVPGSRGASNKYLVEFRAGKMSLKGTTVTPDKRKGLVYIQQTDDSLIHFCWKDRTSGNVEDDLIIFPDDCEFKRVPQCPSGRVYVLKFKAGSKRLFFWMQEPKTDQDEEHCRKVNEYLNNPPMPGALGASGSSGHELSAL

[12] = target: T1, hRpn13 (1–150); experiment: SEC + other: LC-MS; hRpn2 (916-953):hRpn13 Pru complex passed over a size exclusion column after mixing to remove excess component; molar ratio evaluated by LC-MS; conditions: both partners purified

Molecule: Cl.N[C@@H](Cc1ccccc1)C(=O)N1C/C(=C/c2ccc(Cl)c(Cl)c2)C(=O)/C(=C\c2ccc(Cl)c(Cl)c2)C1 [RA190]
covalent attachment to Rpn13 [1]: covalently attaches to Rpn13 Cys88 | effect on Rpn13 interdomain interactions [2]: abrogates Rpn13 interdomain interactions | growth of multiple myeloma and ovarian cancer xenografts [3]: restricts growth of multiple myeloma and ovarian cancer xenografts | effect on ubiquitin-mediated protein degradation [4]: inhibits ubiquitin-mediated protein degradation

Molecule: F948 with arginine: FLAG-hRpn2 (916–953) variant with F948 replaced with arginine ({FLAG}-DTSEDIEELVEPVAAHGPKIEEEEQEPEPPEPREYIDD; UniProt Q99460 916-953, looked up, variant F948R)
immunoprecipitation of / interaction with endogenous hRpn13 [5]: unable to immunoprecipitate endogenous hRpn13 from 293T cells

amount of hRpn13 at the proteasome [6]: does not deplete hRpn13 from proteasome
Molecule: F948Stop: FLAG-hRpn2 (916–953) variant with F948 replaced with a stop codon; negative control (DTSEDIEELVEPVAAHGPKIEEEEQEPEPPEP; not fully specified (N-terminus))
immunoprecipitation of / interaction with endogenous hRpn13 [5]: does not bind hRpn13 | presence of ubiquitinated proteins in cell lysate [7]: increase was not observed

Molecule: FLAG-hRpn2 (916–953) WT: hRpn2 (916–953) fragment in frame with an N-terminal FLAG tag, expressed from p3XFLAG-CMV7.1 in 293T cells ({FLAG}-DTSEDIEELVEPVAAHGPKIEEEEQEPEPPEPFEYIDD; UniProt Q99460 916-953, looked up, fragment)
immunoprecipitation of / interaction with endogenous hRpn13 [5]: confirmed the interaction of the hRpn2-derived peptide with endogenous hRpn13 in 293T cells | immunoprecipitation of endogenous hRpn2 [8]: neither of these RP components was immunoprecipitated by the peptide | immunoprecipitation of endogenous hRpt3 [9]: neither of these RP components was immunoprecipitated by the peptide | amount of hRpn13 at the proteasome [6]: significantly reduced the amount of hRpn13 at the proteasome | assembly of hRpn2 into the proteasome [10]: not affected by expression of the hRpn2-derived peptide | presence of ubiquitinated proteins in cell lysate [7]: increase in the presence of ubiquitinated proteins

Kd [11]: 12 nM | stoichiometry N [12]: 1
B1: hRpn2 (916–953) (peptide)
chain: GPGSDTSEDIEELVEPVAAHGPKIEEEEQEPEPPEPFEYIDD
notes: amino acids that remained at the N-terminal end from the PreScission protease tag after cleavage; human Rpn2/PSMD1, proteasome PC repeat protein, residues 916-953 (the C-terminal 38 amino acids); also called hRpn2-derived peptide; 38-amino acid peptide derived from the C-terminus of hRpn2/PSMD1; source: E. coli, purified (glutathione S-sepharose, PreScission cleavage, Superdex 75); not shown: …

Source: paper PMC4605517 (PLoS ONE, 2015)
